Patent US6998407B2, “Antagonists of MCP-1 function and methods of use thereof” (Telik, Inc., priority 2001, dated 2006)

Columns and labels:
ICR male mice = assay: Thioglycollate-induced inflammation model; assay type: in vivo; settings: peritoneal cavity, 96 h after thioglycollate; 10 mg/kg subcutaneous at 0 h, 3 h and 16 h
Procedure: 3% Brewer's thioglycollate broth (Difco, Detroit, Mich.) was injected into the peritoneal cavity of ICR male mice, followed by subcutaneous administration of the same dose of test compound after 0 h, 3 h and 16 hours post-thioglycollate injection, respectively. After 96 h, the number of total elicited cells and MOMA2-positive cells in the peritoneal cavity was analyzed using a flowcytometer (EPICS XL, Beckman Coulter).

male Wistar rats = assay: Anti-Thy-1 antibody induced nephritis model; assay type: in vivo; settings: 1 mg/kg subcutaneous, 2 h before, immediately after, 5 h after anti-Thy-1 antibody, then twice a day for 2 days
Procedure: The efficacy of the compounds of the present invention was also evaluated in an animal model of nephritis. This model simulates very closely the conditions found in human mesangial proliferative glomerulonephritis.
Anti-Thy-1 nephritis was induced by intravenous injection of anti-Thy-1-antibody to male Wistar rats. The test compound was subcutaneously administered 2 h before, immediately after, and 5 h after the anti-Thy-1 antibody treatment, and then twice a day for the following 2 days. Anti-MCP-1 antibody was intraperitoneally injected once a day for 3 days. Seven days after the anti-Thy-1 antibody treatment, the rats were sacrificed. The kidneys were perfused with 10% formaldehyde in PBS, surgically removed, and immersed in 10% formaldehyde. The kidneys were then embedded in paraffin for glomerular histopathology or in OCT compound Miles Inc., Elkhart, Ind.) in liquid nitrogen after immersion in 30% sucrose overnight. Immunohistochemical staining was performed with a mouse anti-rat ED-1 monoclonal antibody. Briefly, […] renal sections were prepared and endogenous peroxidase blocked with 0.3% hydrogen peroxide. The sections were then blocked with Protein Block (DAKO, Japan) and stained with anti-ED-1 antibody for 45 min. […] The amount of urinary protein was determined with the DC protein assay kit (Bio-Rad, Hercules, Calif.). […]

SMILES | MOMA2-positive Cells (ICR male mice) | Total Cells (ICR male mice) | Urinary Protein (male Wistar rats)
O=C(NC(=O)c1ccc2c(c1)OCO2)Nc1cccc(C(F)(F)F)c1 [Compound 16, 2H-Benzo[3,4-d]1,3-dioxolen-5-yl-N-({[3-(trifluoromethyl)phenyl]amino}carbonyl)carboxamide] | 7.5 ± 1.6 × 10^6 | 8.8 ± 1.5 × 10^6 | –
O=C(NC(=O)c1ccc2ncoc2c1)Nc1ccc(Cl)c(Cl)c1 [Compound 80, Benzoxazol-6-yl-N-{[(3,4-dichlorophenyl)amino]carbonyl}carboxamide] | – | – | 162.1 ± 42.6 mg/day
O=C(NC(=O)c1ccc2ncoc2c1)Nc1ccc(C(F)(F)F)cc1 [Compound 82, Benzoxazol-6-yl-N-({[4-(trifluoromethyl)phenyl]amino}carbonyl)carboxamide] | 3.2 ± 0.4 × 10^6 | 4.2 ± 0.4 × 10^6 | –
